Results reported in ChEMBL document CHEMBL2046268 (Eur J Med Chem, 2012).
Calls of active or inactive are those of the source. The calls are words filed in the database; no cut-off is given here.

How the values were obtained:
Caspase-3 (Homo sapiens) [1] = target: T1, Caspase-3 (Homo sapiens) (UniProt P42574); assay: Induction of caspase 3 activation in human HeLa cells using Ac-DEVD-pNA at 24 uM after 8 hrs by Bradford assay; format: cell-based
T1 sequence (whole entry): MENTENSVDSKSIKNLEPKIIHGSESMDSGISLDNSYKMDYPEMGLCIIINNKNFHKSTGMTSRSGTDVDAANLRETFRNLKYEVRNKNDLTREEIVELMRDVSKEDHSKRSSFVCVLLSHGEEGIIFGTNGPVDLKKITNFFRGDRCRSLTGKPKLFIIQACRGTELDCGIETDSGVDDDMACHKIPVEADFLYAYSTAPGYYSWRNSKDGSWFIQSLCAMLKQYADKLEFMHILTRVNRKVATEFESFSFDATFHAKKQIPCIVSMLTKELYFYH

Vero [2] = assay: Cytotoxicity against african green monkey Vero cells assessed as cell viability after 72 hrs by MTT assay; format: cell-based; details: Chlorocebus sabaeus
Vero [3] = assay: Cytotoxicity against african green monkey Vero cells assessed as cell viability after 48 hrs by MTT assay; format: cell-based; details: Chlorocebus sabaeus
HeLa [4] = assay: Induction of apoptosis in human HeLa cells assessed as phosphatidylserine externalization at 2 to 16 uM using annexin/PI staining by fluorescence microscopy; format: functional, cell-based; details: TDE = time-dependent effect
HeLa [5] = assay: Induction of apoptosis in human HeLa cells assessed as necrotic cells at 2 to 16 uM using annexin/PI staining by fluorescence microscopy; format: functional, cell-based; details: TDE = time-dependent effect
HeLa [6] = assay: Induction of apoptosis in human HeLa cells assessed as chromatin condensation at 8 uM after 12 hrs using Hoechst 33342 staining by fluorescence microscopic analysis; format: functional, cell-based
HeLa [7] = assay: Induction of apoptosis in human HeLa cells assessed as DNA fragmentation at 16 to 32 uM after 24 hrs by agarose gel electrophoresis; format: functional, cell-based
HeLa [8] = assay: Cytotoxicity against human HeLa cells assessed as cell viability after 72 hrs by MTT assay; format: functional, cell-based
HeLa [9] = assay: Cytotoxicity against human HeLa cells assessed as cell viability after 48 hrs by MTT assay; format: functional, cell-based
HeLa [10] = assay: Induction of apoptosis in human HeLa cells assessed as necrotic cells after 0.5 to 4 hrs using annexin/PI staining by fluorescence microscopy; format: functional, cell-based
Caspase-3 (Homo sapiens) [11] = target: T1, Caspase-3 (Homo sapiens); assay: Induction of caspase 3 activation in human HeLa cells using Ac-DEVD-pNA at 8 uM after 4 hrs by Bradford assay; format: cell-based
MCF7 [12] = assay: Cytotoxicity against human MCF7 cells assessed as cell viability after 72 hrs by MTT assay; format: functional, cell-based; details: MCF7, 72 h
HeLa [13] = assay: Induction of apoptosis in human HeLa cells assessed as early apoptotic cells at 2 to 4 uM up to 4 hrs using annexin/PI staining by fluorescence microscopy; format: functional, cell-based
HeLa [14] = assay: Induction of apoptosis in human HeLa cells assessed as DNA fragmentation at 16 uM after 48 hrs by agarose gel electrophoresis; format: functional, cell-based
MCF7 [15] = assay: Cytotoxicity against human MCF7 cells assessed as cell viability after 48 hrs by MTT assay; format: functional, cell-based; details: MCF7, 48 h
Caspase-3 (Homo sapiens) [16] = target: T1, Caspase-3 (Homo sapiens); assay: Induction of caspase 3 activation in human HeLa cells using Ac-DEVD-pNA after 4 hrs by Bradford assay; format: cell-based
A549 [17] = assay: Cytotoxicity against human A549 cells assessed as cell viability after 48 hrs by MTT assay; format: functional, cell-based; details: A549, 48 h
Vero [18] = assay: Selectivity index, ratio of IC50 for african green monkey Vero cells to IC50 for human MCF7 cells after 48 hrs
HeLa [19] = assay: Induction of apoptosis in human HeLa cells assessed as phosphatidylserine externalization after 0.5 to 4 hrs using annexin/PI staining by fluorescence microscopy; format: functional, cell-based
HeLa [20] = assay: Induction of apoptosis in human HeLa cells assessed as increase in sub-G1 DNA content at 24 uM after 12 hrs using Propidium iodide staining by flow cytometry; format: functional, cell-based
A549 [21] = assay: Cytotoxicity against human A549 cells assessed as cell viability after 72 hrs by MTT assay; format: functional, cell-based; details: A549, 72 h
Caspase-3 (Homo sapiens) [22] = target: T1, Caspase-3 (Homo sapiens); assay: Induction of caspase 3 activation in human HeLa cells using Ac-DEVD-pNA at 4 uM after 4 hrs by Bradford assay; format: cell-based
HeLa [23] = assay: Induction of apoptosis in human HeLa cells assessed as formation of apoptotic bodies at 8 uM after 12 hrs using Hoechst 33342 staining by fluorescence microscopic analysis; format: functional, cell-based
HeLa [24] = assay: Induction of apoptosis in human HeLa cells assessed as DNA fragmentation at 4 to 32 uM after 12 hrs by agarose gel electrophoresis; format: functional, cell-based

Row | Structure (SMILES) | IC50 (Vero [2]) [µM] | IC50 (Vero [3]) [µM] | IC50 (HeLa [8]) [µM] | IC50 (HeLa [9]) [µM] | IC50 (MCF7 [12]) [µM] | IC50 (MCF7 [15]) [µM] | IC50 (A549 [17]) [µM] | Ratio IC50 (Vero [18]) | IC50 (A549 [21]) [µM] | other results
1 | CC1=C(CO)C(=O)O[C@@H]([C@@H](C)[C@H]2CC[C@H]3[C@@H]4C[C@H]5O[C@]56[C@@H](O)C=CC(=O)[C@]6(C)[C@H]4CC[C@]23C)C1 [WITHAFERIN A] | 1.7 | 1.3 | 2.3 | 3 | 0.6 | 3.6 | 6.6 | <1 | 1.5 | Activity (Caspase-3 (Homo sapiens) [1]): Active; Activity (HeLa [4]): tde; Activity (HeLa [5]): tde; Activity (HeLa [6]): Active; Activity (HeLa [7]): inactive; Activity (HeLa [10]): Dose-dependent effect; Activity (Caspase-3 (Homo sapiens) [11]): inactive; Activity (HeLa [13]): Active; Activity (HeLa [14]): inactive; Activity (Caspase-3 (Homo sapiens) [16]): Dose-dependent effect; Activity (HeLa [19]): Dose-dependent effect; Activity (HeLa [20]): Active; Activity (Caspase-3 (Homo sapiens) [22]): inactive; Activity (HeLa [23]): Active; Activity (HeLa [24]): inactive
2 | CC1=C(CO)C(=O)O[C@@H]([C@@H](C)[C@@]2(O)CC[C@H]3[C@@H]4C[C@H]5O[C@]56[C@@H](O)C=CC(=O)[C@]6(C)[C@H]4CC[C@@]32C)C1 | 21.8 | 28.8 | 19.8 | 17.7 | 10.3 | 16.3 | > 40 | 1.8 | 31.7 | 
3 | CC(=O)OCC1=C(C)C[C@H]([C@@H](C)[C@H]2CC[C@H]3[C@@H]4C[C@H]5O[C@]56[C@@H](O)C=CC(=O)[C@]6(C)[C@H]4CC[C@]23C)OC1=O | 8.5 | 11.4 | 4.7 | 7.7 | 2 | 5.3 | 6.7 | 2.2 | 4.4 | 
4 | CC1=C(CO)C(=O)O[C@@H]([C@@H](C)[C@H]2CC[C@H]3[C@@H]4C[C@@H](O)[C@@]5(O)[C@@H](O)[C@@H](O)CC(=O)[C@]5(C)[C@H]4CC[C@]23C)C1 | > 40 | > 40 | > 40 | > 40 | > 40 | > 40 | > 40 |  | > 40 | 
5 | CC1=C(CO)C(=O)O[C@@H]([C@@H](C)[C@H]2CC[C@H]3[C@@H]4C[C@@H](O)[C@]5(C=O)CCC(=O)[C@]5(C)[C@H]4CC[C@]23C)C1 | > 40 | > 40 | > 40 | > 40 | > 40 | > 40 | > 40 |  | > 40 | 
6 | CC1=C(CO)C(=O)O[C@@H]([C@@H](C)[C@H]2CC[C@H]3[C@@H]4C[C@H]5O[C@]56C(=O)C=CC(=O)[C@]6(C)[C@H]4CC[C@]23C)C1 | 1.5 | 7.7 | 15.2 | 18.4 | 2.1 | 3.2 | 25.4 | 2.4 | 12.8 | 
7 | CC1=C(C)C(=O)O[C@@H]([C@@H](C)C2=CC[C@H]3[C@@H]4C[C@H]5O[C@]56[C@@H](O)C=CC(=O)[C@]6(C)[C@H]4CC[C@]23C)C1 | 3.1 | 4.7 | 8 | 21.5 | 2.2 | 12.6 | 40 | <1 | 5.5 | 
8 | CC1=C(CO)C(=O)O[C@@H]([C@@H](C)[C@H]2CC[C@H]3[C@@H]4C[C@@H](O)[C@]5(C=O)C=CC(=O)[C@]5(C)[C@H]4CC[C@]23C)C1 | > 40 | > 40 | > 40 | > 40 | > 40 | > 40 | > 40 |  | > 40 | 
9 | CC1=C(CO)C(=O)O[C@@H](/C(C)=C2\[C@@H](O)C[C@H]3[C@@H]4C[C@H]5O[C@]56[C@@H](O)C=CC(=O)[C@]6(C)[C@H]4CC[C@]23C)C1 | > 40 | > 40 | 31.1 | 40 | 6 | 27.7 | > 40 | <1 | > 40 | 
10 | CC1=C(C)C(=O)O[C@@H]([C@@H](C)[C@H]2CC[C@H]3[C@@H]4C[C@H]5O[C@]56[C@@H](O)C=CC(=O)[C@]6(C)[C@H]4CC[C@]23C)C1 | 2.2 | 1.5 | 3.4 | 4.6 | 1.1 | 6.6 | 9 | <1 | 1.5 | Activity (HeLa [4]): tde; Activity (HeLa [5]): tde; Activity (HeLa [6]): Active; Activity (HeLa [7]): inactive; Activity (HeLa [10]): Dose-dependent effect; Activity (Caspase-3 (Homo sapiens) [11]): inactive; Activity (HeLa [13]): Active; Activity (HeLa [14]): inactive; Activity (Caspase-3 (Homo sapiens) [16]): Dose-dependent effect; Activity (HeLa [19]): Dose-dependent effect; Activity (HeLa [20]): Active; Activity (Caspase-3 (Homo sapiens) [22]): inactive; Activity (HeLa [23]): Active; Activity (HeLa [24]): inactive
11 | CC1=C(COC(C)(C)OC=O)C(=O)O[C@@H]([C@@H](C)[C@H]2CC[C@H]3[C@@H]4C[C@H]5O[C@]56[C@@H](O)C=CC(=O)[C@]6(C)[C@H]4CC[C@]23C)C1 | 18.5 | 27.8 | 37.3 | > 40 | 18.3 | 26.9 | > 40 | 1 | > 40 | 
12 | CC1=C(C)C(=O)O[C@@H]([C@@H](C)[C@H]2CC[C@H]3[C@@H]4C[C@@H](O)[C@]5(C=O)CCC(=O)[C@]5(C)[C@H]4CC[C@]23C)C1 | > 40 | > 40 | > 40 | > 40 | > 40 | > 40 | > 40 |  | > 40 | 
13 | CC1=C(CO)C(=O)O[C@@H]([C@@H](C)[C@H]2CC[C@H]3[C@@H]4C[C@H](O)[C@]5(O)[C@@H](O)C=CC(=O)[C@]5(C)[C@H]4CC[C@]23C)C1 | 26.9 | 40 | 31.4 | > 40 | 36.2 | 38.4 | > 40 | 1 | 36.4 | 
14 | CC1=C(CO)C(=O)O[C@@H]([C@@H](C)[C@H]2CC[C@H]3[C@@H]4C[C@H](Cl)[C@]5(O)[C@@H](O)C=CC(=O)[C@]5(C)[C@H]4CC[C@]23C)C1 | 7.8 | 14.8 | 12.1 | 13.4 | 1.3 | 7.5 | 14.7 | 2 | 8.6 | 
15 | CC(=O)OCC1=C(C)C[C@H]([C@@H](C)[C@H]2CC[C@H]3[C@@H]4C[C@H]5O[C@]56[C@@H](O)[C@@H](O)CC(=O)[C@]6(C)[C@H]4CC[C@]23C)OC1=O | 4.9 | 8.6 | 8.3 | 8.9 | 7.1 | 9.2 | 18.4 | <1 | 21.3 | 
16 | CC1=C(CO)C(=O)O[C@@H]([C@@H](C)[C@H]2CC[C@H]3[C@@H]4C[C@H]5O[C@]56[C@@H](O)CCC(=O)[C@]6(C)[C@H]4CC[C@]23C)C1 | 9 | 15.5 | 19.3 | 28.9 | 5.4 | 14.4 | 33.5 | 1.1 | 17.2 | 
17 | Sc1ncnc2nc[nH]c12 [MERCAPTOPURINE ANHYDROUS] |  |  |  |  |  |  |  | 48.3 |  | 
